Laboratory results: ChEMBL document CHEMBL2321853, “Novel acylethanolamide derivatives that modulate body weight through enhancement of hypothalamic pro-opiomelanocortin (POMC) and/or decreased neuropeptide Y (NPY)” (J Med Chem, 2013)
Active and inactive are the calls of the source. The rule behind the calls is not given here.

Columns and labels:
[1] = target: Transient receptor potential cation channel subfamily V member 1 (Mus musculus) (UniProt Q704Y3); test: Displacement of [3H]resiniferatoxin from TRPV1 in mouse cortical slices
Sequence of Transient receptor potential cation channel subfamily V member 1 (Mus musculus) (Q704Y3 whole entry): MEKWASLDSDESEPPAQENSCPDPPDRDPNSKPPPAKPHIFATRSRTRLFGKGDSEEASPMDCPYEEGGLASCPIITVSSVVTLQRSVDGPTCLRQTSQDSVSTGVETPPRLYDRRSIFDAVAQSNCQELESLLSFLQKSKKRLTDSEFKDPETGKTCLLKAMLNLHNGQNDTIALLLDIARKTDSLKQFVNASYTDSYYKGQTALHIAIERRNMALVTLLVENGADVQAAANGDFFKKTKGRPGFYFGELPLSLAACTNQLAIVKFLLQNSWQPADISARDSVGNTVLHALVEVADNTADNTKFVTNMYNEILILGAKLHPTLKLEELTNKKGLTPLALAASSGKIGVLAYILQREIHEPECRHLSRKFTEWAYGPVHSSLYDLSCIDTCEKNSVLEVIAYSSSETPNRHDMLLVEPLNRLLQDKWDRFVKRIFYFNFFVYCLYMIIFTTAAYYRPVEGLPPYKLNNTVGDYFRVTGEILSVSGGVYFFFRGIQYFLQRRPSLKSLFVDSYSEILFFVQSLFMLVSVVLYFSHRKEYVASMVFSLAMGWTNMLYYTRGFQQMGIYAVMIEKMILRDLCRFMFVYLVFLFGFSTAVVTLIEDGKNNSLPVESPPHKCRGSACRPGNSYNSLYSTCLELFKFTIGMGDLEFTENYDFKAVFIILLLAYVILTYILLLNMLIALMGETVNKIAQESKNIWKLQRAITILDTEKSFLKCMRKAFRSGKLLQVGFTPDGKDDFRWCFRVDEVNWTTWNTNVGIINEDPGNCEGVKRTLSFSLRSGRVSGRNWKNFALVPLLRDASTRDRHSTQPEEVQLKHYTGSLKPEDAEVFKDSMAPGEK

Mus musculus [2] = test: Antiobesity activity in Sabra mouse assessed as reduction in body weight at 1 mg/kg, ip administered on day 0, 10, 11, 12, 24, 29 measured on day 26 relative to control; format: functional; set-up: scale not given: the % may be the effect or the level left; settings: route intraperitoneal
Mus musculus [3] = test: Antiobesity activity in Sabra mouse assessed as reduction in body weight at 1 mg/kg, ip administered on day 0, 10, 11, 12, 24, 29 measured on day 24 relative to control; format: functional; set-up: scale not given: the % may be the effect or the level left; settings: route intraperitoneal
Mus musculus [4] = test: Antiobesity activity in Sabra mouse assessed as reduction in body weight at 1 mg/kg, ip administered on day 0, 10, 11, 12, 24, 29 measured on day 39 relative to control; format: functional; set-up: scale not given: the % may be the effect or the level left; settings: route intraperitoneal
Mus musculus [5] = test: Antiobesity activity in Sabra mouse assessed as reduction in body weight at 1 mg/kg, ip administered on day 0, 10, 11, 12, 24, 29 measured on day 36 relative to control; format: functional; set-up: scale not given: the % may be the effect or the level left; settings: route intraperitoneal
Mus musculus [6] = test: Antiobesity activity in Sabra mouse assessed as reduction in body weight at 1 mg/kg, ip administered on day 0, 10, 11, 12, 24, 29 measured on day 22 relative to control; format: functional; set-up: scale not given: the % may be the effect or the level left; settings: route intraperitoneal
Mus musculus [7] = test: Antiobesity activity in Sabra mouse assessed as reduction in body weight at 1 mg/kg, ip administered on day 0, 10, 11, 12, 24, 29 measured on day 33 relative to control; format: functional; set-up: scale not given: the % may be the effect or the level left; settings: route intraperitoneal
Mus musculus [8] = test: Antiobesity activity in Sabra mouse assessed as reduction in body weight at 1 mg/kg, ip administered on day 0, 10, 11, 12, 24, 29 measured on day 12 relative to control; format: functional; set-up: scale not given: the % may be the effect or the level left; settings: route intraperitoneal
Mus musculus [9] = test: Antiobesity activity in Sabra mouse assessed as reduction in body weight at 1 mg/kg, ip administered on day 0, 10, 11, 12, 24, 29 measured on day 19 relative to control; format: functional; set-up: scale not given: the % may be the effect or the level left; settings: route intraperitoneal
Mus musculus [10] = test: Antiobesity activity in Sabra mouse assessed as reduction in body weight at 1 mg/kg, ip administered on day 0, 10, 11, 12, 24, 29 measured on day 29 relative to control; format: functional; set-up: scale not given: the % may be the effect or the level left; settings: route intraperitoneal
[11] = target: T1, Transient receptor potential cation channel subfamily V member 1 (Homo sapiens, UniProt Q8NER1); test: Activation of TRPV1 in HEK293 cells; format: cell-based
T1 sequence (Q8NER1 whole entry): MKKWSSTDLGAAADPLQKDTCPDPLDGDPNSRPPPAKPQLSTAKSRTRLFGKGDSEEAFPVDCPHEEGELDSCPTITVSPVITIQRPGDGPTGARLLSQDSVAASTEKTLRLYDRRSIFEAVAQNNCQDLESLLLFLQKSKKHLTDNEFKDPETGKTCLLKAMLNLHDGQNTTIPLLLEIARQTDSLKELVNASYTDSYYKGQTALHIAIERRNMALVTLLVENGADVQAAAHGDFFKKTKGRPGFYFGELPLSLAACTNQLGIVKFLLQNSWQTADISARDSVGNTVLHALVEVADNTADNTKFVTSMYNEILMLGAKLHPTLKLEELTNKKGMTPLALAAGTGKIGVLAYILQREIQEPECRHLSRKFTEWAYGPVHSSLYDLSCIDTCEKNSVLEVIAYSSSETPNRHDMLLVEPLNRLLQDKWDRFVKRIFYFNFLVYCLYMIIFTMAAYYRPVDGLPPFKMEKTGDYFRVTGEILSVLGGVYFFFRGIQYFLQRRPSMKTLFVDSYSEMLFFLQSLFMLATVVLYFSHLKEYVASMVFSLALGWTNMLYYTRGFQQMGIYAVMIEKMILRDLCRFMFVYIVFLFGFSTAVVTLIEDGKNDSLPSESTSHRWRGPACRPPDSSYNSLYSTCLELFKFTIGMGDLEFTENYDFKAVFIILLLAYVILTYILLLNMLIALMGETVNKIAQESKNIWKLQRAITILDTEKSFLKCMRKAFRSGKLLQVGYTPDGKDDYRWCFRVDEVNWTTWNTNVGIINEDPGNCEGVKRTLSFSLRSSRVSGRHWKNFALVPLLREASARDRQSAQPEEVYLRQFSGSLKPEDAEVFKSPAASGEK

[12] = target: Transient receptor potential cation channel subfamily V member 1 (Rattus norvegicus) (UniProt O35433); test: Activation of TRPV1 in rat blood vessels; format: tissue-based; settings: Blood vessel
Sequence of Transient receptor potential cation channel subfamily V member 1 (Rattus norvegicus) (O35433 whole entry): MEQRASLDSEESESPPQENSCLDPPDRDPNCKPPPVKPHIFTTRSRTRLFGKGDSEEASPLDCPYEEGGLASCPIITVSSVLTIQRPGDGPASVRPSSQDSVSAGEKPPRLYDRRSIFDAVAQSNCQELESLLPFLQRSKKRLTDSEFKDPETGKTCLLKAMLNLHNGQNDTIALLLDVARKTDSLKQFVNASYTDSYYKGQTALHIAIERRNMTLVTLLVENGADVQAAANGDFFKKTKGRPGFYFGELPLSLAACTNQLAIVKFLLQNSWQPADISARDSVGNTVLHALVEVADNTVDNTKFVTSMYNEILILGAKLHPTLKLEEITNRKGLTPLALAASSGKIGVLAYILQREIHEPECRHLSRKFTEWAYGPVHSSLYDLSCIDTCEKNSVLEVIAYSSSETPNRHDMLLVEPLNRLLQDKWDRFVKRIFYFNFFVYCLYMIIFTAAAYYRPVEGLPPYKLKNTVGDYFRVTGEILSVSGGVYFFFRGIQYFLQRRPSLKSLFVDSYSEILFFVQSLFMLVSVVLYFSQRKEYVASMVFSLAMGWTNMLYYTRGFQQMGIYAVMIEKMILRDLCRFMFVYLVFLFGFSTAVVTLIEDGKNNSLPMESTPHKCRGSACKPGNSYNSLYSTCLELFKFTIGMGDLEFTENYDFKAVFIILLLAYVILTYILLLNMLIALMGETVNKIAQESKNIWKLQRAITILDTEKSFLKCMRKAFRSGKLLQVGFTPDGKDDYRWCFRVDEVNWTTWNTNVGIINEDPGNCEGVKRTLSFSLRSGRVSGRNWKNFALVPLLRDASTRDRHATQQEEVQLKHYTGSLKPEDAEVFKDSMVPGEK

[13] = target: T1, Transient receptor potential cation channel subfamily V member 1; test: Agonist activity at TRPV1 receptor (unknown origin)

CCCCCCCCCCCCCCCCCC(=O)NCCO
Activity [1]: inactive

CCCCCCCC/C=C\CCCCCCCC(=O)N[C@@H](C)CO
Activity (Mus musculus [2]): -0.5%
Activity (Mus musculus [3]): -1.57%
Activity (Mus musculus [4]): -3.58%
Activity (Mus musculus [5]): -2.56%
Activity (Mus musculus [6]): -2.24%
Activity (Mus musculus [7]): -1.63%
Activity (Mus musculus [8]): -1.8%
Activity (Mus musculus [9]): -2.24%
Activity (Mus musculus [10]): -3.66%

CCCCCCCCCCCCCCCC(=O)NCCO
Activity [11]: inactive
Activity [12]: inactive

CCCCC/C=C\C/C=C\C/C=C\C/C=C\CCCC(=O)NCCO [ANANDAMIDE]
EC50 [13]: 15.8 nM
